IC50 data for 21 compounds are collected here from patent publication US20240262793A1, “QUINAZOLINE COMPOUND, AND PREPARATION METHOD THEREFOR AND APPLICATION THEREOF” (SHANGHAI PHARMACEUTICALS HOLDING CO., LTD., priority 2021, published 2024).

Holding throughout (assay type): cell-based
What all share (details): Homo sapiens, LPS 100 ng/mL

One assay concerns TNF-α. Description: Inhibition of TNF-α in PMA-differentiated, LPS-stimulated THP-1 cells (ELISA of cell supernatant). The essentials:
(§1)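 THP-1 cells differentiated 24 h with 50 ng/mL PMA at 1×10^5 cells/well, then treated with compound in medium containing 100 ng/mL LPS (0.1% DMSO controls). TNF-α and IL-6 measured by ELISA in supernatant, IL-1β by ELISA in lysed cell pellet; inhibition calculated relative to LPS-stimulated control.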
(In general: An ELISA detects its analyte on a solid surface through an enzyme-linked reagent.)

The next assay relates to IL-6. Description: Inhibition of IL-6 in PMA-differentiated, LPS-stimulated THP-1 cells (ELISA of cell supernatant). The essentials:
as §1

Another assay deals with IL-1β. Kind of assay: Inhibition of IL-1β in PMA-differentiated, LPS-stimulated THP-1 cells (ELISA of cell lysate). The method in brief:
as §1

Usually IC50 stands for the concentration that gives 50% inhibition. Lower therefore signals greater potency. On to `O=C1NC2(CCC2)C(=O)N1CCCCCNc1ncnc2cc(F)ccc12` [Example 51, 7-(5-((7-Fluoroquinazolin-4-yl)amino)pentyl)-5,7-diazaspiro[3.4]octane-6,8-dione], for which the IC50 was found to be 3.96 µM in the assay on TNF-α (THP-1, Table 8, PMA 50 ng/mL); 0.04 µM in the assay on IL-6 (THP-1, Table 8, PMA 50 ng/mL); 3.52 µM with IL-1β (THP-1, Table 8, PMA 50 ng/mL).
The matching figures for `O=C1NC2(CCCC2)C(=O)N1CCCCCNc1ncnc2cc(F)ccc12` [Example 52, 3-(5-((7-Fluoroquinazolin-4-yl)amino)pentyl)-1,3-diazaspiro[4.4]nonane-2,4-dione]: 28.3 µM, 0.28 µM and 21 µM.
The like results for `CN1CC(=O)N(CCCCCNc2ncnc3cc(F)ccc23)C1=O` [Example 54, 3-(5-((7-Fluoroquinazolin-4-yl)amino)pentyl)-1-methylimidazoline-2,4-dione] were, in that order, 114 µM, 1.05 µM and 154 µM.
Take `O=C1NC2(CC2)C(=O)N1CCCCCNc1ncnc2cc(F)ccc12` [Example 55, 6-(5-((7-Fluoroquinazolin-4-yl)amino)pentyl)-4,6-diazaspiro[2.4]heptane-5,7-dione]: the IC50 with TNF-α (THP-1, Table 8, PMA 50 ng/mL) worked out at 34.9 µM; in the assay with IL-6 (THP-1, Table 8, PMA 50 ng/mL), 0.34 µM; with IL-1β (THP-1, Table 8, PMA 50 ng/mL) it was 63.8 µM.
The matching figures for `O=C1CNC(=O)N1CCCCNc1ncnc2cc(F)ccc12` [Example 56, 3-(4-((7-Fluoroquinazolin-4-yl)amino)butyl)imidazoline-2,4-dione]: 159 µM, 18.8 µM and 16.3 µM.
`CC1(C)NC(=O)N(CCCCNc2ncnc3cc(F)ccc23)C1=O` [Example 57, 3-(4-((7-Fluoroquinazolin-4-yl)amino)butyl)-5,5-dimethylimidazoline-2,4-dione]: the IC50 in the assay on TNF-α (THP-1, Table 8, PMA 50 ng/mL) stood at 29.4 µM; with IL-6 (THP-1, Table 8, PMA 50 ng/mL), 3.22 µM; in the assay with IL-1β (THP-1, Table 8, PMA 50 ng/mL), 53.9 µM.
Consider `CN1CC(=O)N(CCCCNc2ncnc3cc(F)ccc23)C1=O` [Example 58, 3-(4-((7-Fluoroquinazolin-4-yl)amino)butyl)-1-methylimidazoline-2,4-dione], for which the IC50 in the assay on TNF-α (THP-1, Table 8, PMA 50 ng/mL) stood at 90.7 µM; with IL-6 (THP-1, Table 8, PMA 50 ng/mL) it was 2.58 µM; with IL-1β (THP-1, Table 8, PMA 50 ng/mL), 86.5 µM.
The like results for `O=C1NC2(CCCC2)C(=O)N1CCCCNc1ncnc2cc(F)ccc12` [Example 59, 3-(4-((7-Fluoroquinazolin-4-yl)amino)butyl)-1,3-diazaspiro[4.4]nonane-2,4-dione] were, in that order, 12.1 µM, 0.37 µM and 80.5 µM.
As for `O=C1NC2(CCCC2)C(=O)N1CCCCNc1ncnc2cc(Cl)ccc12` [Example 62, 3-(4-((7-Chloroquinazolin-4-yl)amino)butyl)-1,3-diazaspiro[4.4]nonane-2,4-dione], the 50% inhibitory concentration (IC50) was determined as 7.18 µM in the assay on TNF-α (THP-1, Table 8, PMA 50 ng/mL); 0.75 µM in the assay with IL-6 (THP-1, Table 8, PMA 50 ng/mL); 51.6 µM with IL-1β (THP-1, Table 8, PMA 50 ng/mL).
For `O=C1CNC(=O)N1CCCCNc1ncnc2cc(Cl)ccc12` [Example 63, 3-(4-((7-Chloroquinazolin-4-yl)amino)butyl)imidazoline-2,4-dione], the IC50 came out at 79.4 µM in the assay with TNF-α (THP-1, Table 8, PMA 50 ng/mL); 14.4 µM with IL-6 (THP-1, Table 8, PMA 50 ng/mL); 23.1 µM with IL-1β (THP-1, Table 8, PMA 50 ng/mL).
The like results for `O=C1NC2(CCC2)C(=O)N1CCCCNc1ncnc2cc(Cl)ccc12` [Example 64, 7-(4-((7-Chloroquinazolin-4-yl)amino)butyl)-5,7-diazaspiro[3.4]octane-6,8-dione] were, in that order, 34.9 µM, 0.34 µM and 63.8 µM.
Turning to `O=C1NC2(CCCC2)C(=O)N1CCCCCNc1ncnc2cc(Cl)ccc12` [Example 66, 3-(5-((7-Chloroquinazolin-4-yl)amino)pentyl)-1,3-diazaspiro[4.4]nonane-2,4-dione], the IC50 worked out at 3.41 µM with TNF-α (THP-1, Table 8, PMA 50 ng/mL); 0.3 µM in the assay on IL-6 (THP-1, Table 8, PMA 50 ng/mL); 37.4 µM in the assay with IL-1β (THP-1, Table 8, PMA 50 ng/mL).
`O=C1CNC(=O)N1CCCCCNc1ncnc2cc(Cl)ccc12` [Example 67, 3-(5-((7-Chloroquinazolin-4-yl)amino)pentyl)imidazoline-2,4-dione]: the IC50 stood at 65.2 µM in the assay with TNF-α (THP-1, Table 8, PMA 50 ng/mL); 4.6 µM in the assay with IL-6 (THP-1, Table 8, PMA 50 ng/mL); 105 µM in the assay on IL-1β (THP-1, Table 8, PMA 50 ng/mL).
The like results for `CC1(C)NC(=O)N(CCCCCNc2ncnc3cc(Cl)ccc23)C1=O` [Example 69, 3-(5-((7-Chloroquinazolin-4-yl)amino)pentyl)-5,5-dimethylimidazoline-2,4-dione] were, in that order, 11.7 µM, 0.58 µM and 13.7 µM.
With `CC(CCCN1C(=O)NC2(CCC2)C1=O)Nc1ncnc2cc(Cl)ccc12` (stereo not drawn) [Example 71, 7-(4-((7-Chloroquinazolin-4-yl)amino)pentyl)-5,7-diazaspiro[3.4]octane-6,8-dione], the IC50 was found to be 12.7 µM in the assay on TNF-α (THP-1, Table 8, PMA 50 ng/mL); 0.64 µM in the assay on IL-6 (THP-1, Table 8, PMA 50 ng/mL); 16.1 µM in the assay with IL-1β (THP-1, Table 8, PMA 50 ng/mL).
Consider `CC(CCCN1C(=O)NC2(CCCC2)C1=O)Nc1ncnc2cc(Cl)ccc12` (stereo not drawn) [Example 72, 3-(4-((7-Chloroquinazolin-4-yl)amino)pentyl)-1,3-diazaspiro[4.4]nonane-2,4-dione], for which the IC50 stood at 7.5 µM in the assay with TNF-α (THP-1, Table 8, PMA 50 ng/mL); 0.23 µM in the assay on IL-6 (THP-1, Table 8, PMA 50 ng/mL); 12.8 µM in the assay with IL-1β (THP-1, Table 8, PMA 50 ng/mL).
The like results for `CC(CCCN1C(=O)NC2(CC2)C1=O)Nc1ncnc2cc(Cl)ccc12` (stereo not drawn) [Example 73, 6-(4-((7-Chloroquinazolin-4-yl)amino)pentyl)-4,6-diazaspiro[2.4]heptane-5,7-dione] were, in that order, 33.5 µM, 1.5 µM and 38.1 µM.
The like results for `C[C@@H](CCCN1C(=O)CNC1=O)Nc1ncnc2cc(Cl)ccc12` [Example 75, (S)-3-(4-((7-Chloroquinazolin-4-yl)amino)pentyl)imidazolidine-2,4-dione] were, in that order, 45.6 µM, 4.28 µM and 53.8 µM.
The matching figures for `C[C@H](CCCN1C(=O)NC2(CC2)C1=O)Nc1ncnc2cc(Cl)ccc12` [Example 76, (R)-6-(4-((7-Chloroquinazolin-4-yl)amino)pentyl)-4,6-diazaspiro[2.4]heptane-5,7-dione]: 96.1 µM, 19.9 µM and 110 µM.
`C[C@@H](CCCN1C(=O)NC2(CC2)C1=O)Nc1ncnc2cc(Cl)ccc12` [Example 77, (S)-6-(4-((7-Chloroquinazolin-4-yl)amino)pentyl)-4,6-diazaspiro[2.4]heptane-5,7-dione]: the IC50 in the assay on TNF-α (THP-1, Table 8, PMA 50 ng/mL) came to 22.7 µM; in the assay on IL-6 (THP-1, Table 8, PMA 50 ng/mL), 1.37 µM; in the assay on IL-1β (THP-1, Table 8, PMA 50 ng/mL) it was 26.6 µM.
For the compound `CCN(CCO)CCCC(C)Nc1ccnc2cc(Cl)ccc12` (stereo not drawn) [HCQ, Hydroxychloroquine, reference compound], the IC50 in the assay with TNF-α (THP-1, Table 7, PMA 50 ng/mL) stood at 69.3 µM; with TNF-α (THP-1, Table 8, PMA 50 ng/mL) it was 90.5 µM; with IL-6 (THP-1, Table 7, PMA 50 ng/mL), 32 µM; with IL-6 (THP-1, Table 8, PMA 50 ng/mL) it was 123 µM; with IL-1β (THP-1, Table 7, PMA 50 ng/mL), 62.2 µM; in the assay on IL-1β (THP-1, Table 8, PMA 50 ng/mL) it was 164 µM.
